Reference: US8110570B2, “Modulators of acetyl-coenzyme A carboxylase and methods of use thereof” (Cropsolution, Inc., priority 2008, dated 2012)

What was measured:
C2C12 cells = assay: Fatty acid oxidation assay, [1-14C]palmitate to CO2; assay type: cell-based, mouse; conditions: compared to untreated controls
From the text: The in vivo ACC inhibitory activity of compounds in this invention can be confirmed in cultured cells using standard procedures that are well known to those skilled in the art. For example, since ACC catalyzes the first committed step in fatty acid biosynthesis, the in vivo activity of compounds can be confirmed by measuring their ability to prevent the formation of radiolabeled fatty acids from radiolabeled acetate in cultured human hepatoma cells (HepG2). In addition, since the malonyl-CoA produced by ACC inhibits fatty acid oxidation, the in vivo ACC inhibitory activity of compounds can be further confirmed by measuring the stimulation of fatty acid oxidation in cultured mouse myoblast cells (C2C12).
Fatty acid oxidation assays are performed essentially as described (Beckers et al., Cancer Res, 2007, 67: 8180-8187). Briefly, C2C12 cells are plated at 600,000 cells/T25 flask. The next day, media is changed and the DMSO with or without test compound is added to a final concentration of 0.5% (v/v). After 1 h at 37° C. in atmosphere of 5% CO2, freshly made 2 uCi of FA-free bovine serum albumin-[1-^14C] palmitate complex is added to each flask. The flasks are then sealed with a stopper and incubated 6 h at 37° C. after which evolved CO2 is liberated by injection of perchloric acid to final concentration of 5% and captured by incubating the flasks overnight in the presence of filter paper soaked with 5% KOH. The filters are then air-dried and incubated with scintillation cocktail overnight for equilibrium. Radioactivity is quantified by scintillation counting.

[1] = target: uACC (Ustilago maydis ACC) (Ustilago maydis, UniProt A0A0D1DYD5); assay: [14C]bicarbonate incorporation assay, overall ACC activity; assay type: biochemical
uACC (Ustilago maydis ACC), sequence (A0A0D1DYD5 entry or part of it): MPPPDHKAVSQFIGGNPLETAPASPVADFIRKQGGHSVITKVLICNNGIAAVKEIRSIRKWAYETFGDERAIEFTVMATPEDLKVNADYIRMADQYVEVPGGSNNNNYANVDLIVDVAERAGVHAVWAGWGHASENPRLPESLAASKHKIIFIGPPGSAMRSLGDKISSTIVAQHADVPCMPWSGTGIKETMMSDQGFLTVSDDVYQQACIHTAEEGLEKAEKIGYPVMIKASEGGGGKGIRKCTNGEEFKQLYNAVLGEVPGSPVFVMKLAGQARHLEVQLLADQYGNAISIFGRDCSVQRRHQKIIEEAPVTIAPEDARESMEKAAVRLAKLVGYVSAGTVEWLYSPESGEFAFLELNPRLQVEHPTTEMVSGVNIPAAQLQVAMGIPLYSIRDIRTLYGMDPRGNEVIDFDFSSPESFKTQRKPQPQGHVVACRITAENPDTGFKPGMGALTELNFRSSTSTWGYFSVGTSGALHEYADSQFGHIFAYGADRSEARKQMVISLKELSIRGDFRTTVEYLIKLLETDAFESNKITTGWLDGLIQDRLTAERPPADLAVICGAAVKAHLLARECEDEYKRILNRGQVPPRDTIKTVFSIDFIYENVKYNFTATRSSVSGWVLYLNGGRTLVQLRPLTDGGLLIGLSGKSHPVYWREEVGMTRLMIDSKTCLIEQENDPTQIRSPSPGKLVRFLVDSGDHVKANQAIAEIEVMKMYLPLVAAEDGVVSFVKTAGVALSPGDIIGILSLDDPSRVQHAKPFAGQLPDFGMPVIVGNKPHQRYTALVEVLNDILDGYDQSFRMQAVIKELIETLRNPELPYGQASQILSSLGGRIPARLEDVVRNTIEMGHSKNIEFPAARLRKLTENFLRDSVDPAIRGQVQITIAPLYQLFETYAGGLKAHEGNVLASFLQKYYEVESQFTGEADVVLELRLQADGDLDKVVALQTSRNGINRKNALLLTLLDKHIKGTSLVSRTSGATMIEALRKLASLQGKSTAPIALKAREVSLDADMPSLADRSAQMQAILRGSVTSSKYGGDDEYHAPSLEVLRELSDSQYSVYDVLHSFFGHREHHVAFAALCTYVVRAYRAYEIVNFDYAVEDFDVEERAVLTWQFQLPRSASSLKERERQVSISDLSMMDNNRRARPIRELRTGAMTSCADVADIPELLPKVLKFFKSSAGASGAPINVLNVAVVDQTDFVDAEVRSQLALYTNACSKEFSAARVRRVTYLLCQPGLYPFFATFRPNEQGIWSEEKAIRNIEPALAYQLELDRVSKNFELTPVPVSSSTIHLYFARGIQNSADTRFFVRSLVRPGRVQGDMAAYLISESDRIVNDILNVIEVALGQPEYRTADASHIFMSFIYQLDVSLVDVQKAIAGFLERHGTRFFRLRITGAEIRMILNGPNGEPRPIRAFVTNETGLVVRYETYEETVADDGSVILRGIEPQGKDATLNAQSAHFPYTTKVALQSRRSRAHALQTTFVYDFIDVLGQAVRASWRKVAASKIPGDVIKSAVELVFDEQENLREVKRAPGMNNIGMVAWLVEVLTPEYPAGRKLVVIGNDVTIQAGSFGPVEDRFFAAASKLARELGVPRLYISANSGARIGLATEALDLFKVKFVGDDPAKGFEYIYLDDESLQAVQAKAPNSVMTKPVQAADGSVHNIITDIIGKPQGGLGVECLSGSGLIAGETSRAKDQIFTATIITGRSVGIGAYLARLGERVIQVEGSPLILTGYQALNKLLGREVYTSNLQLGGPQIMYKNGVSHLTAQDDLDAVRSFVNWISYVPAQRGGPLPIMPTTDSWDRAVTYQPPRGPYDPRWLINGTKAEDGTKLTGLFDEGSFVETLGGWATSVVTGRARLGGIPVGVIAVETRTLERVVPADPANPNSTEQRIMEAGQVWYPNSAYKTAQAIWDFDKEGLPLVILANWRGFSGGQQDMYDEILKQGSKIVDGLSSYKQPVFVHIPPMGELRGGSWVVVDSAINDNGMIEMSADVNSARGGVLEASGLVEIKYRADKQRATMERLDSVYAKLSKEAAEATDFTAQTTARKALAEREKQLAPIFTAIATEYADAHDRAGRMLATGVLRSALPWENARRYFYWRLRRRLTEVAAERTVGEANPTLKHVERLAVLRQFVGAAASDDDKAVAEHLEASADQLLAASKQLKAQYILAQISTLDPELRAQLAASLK

hACC1-CT = target: T1, hACC1-CT (Homo sapiens, UniProt Q13085); assay: acetyl-CoA/malonyl-CoA isotope exchange assay, CT half-reaction; assay type: biochemical
T1 construct: PCR primers were designed for full-length hACC1 and hACC2 using GenBank submissions AY237919 and AJ575592, respectively; His tag (C); made in house; host or cells: baculovirus, Sf9 insect cells
Procedure: Overall ACC activity is comprised of two half-reactions, the BC reaction (the ATP-dependent carboxylation of biotin) and the CT reaction (the transfer of the carboxyl group from biotin to acetyl-CoA to form malonyl-CoA). Thus, it is of interest to localize the site of action of ACC inhibitors. To this end, representative compounds are tested in an acetyl-CoA/malonyl-CoA isotope exchange reaction which specifically measures the CT-half reaction. This assay is performed with slight modifications of published procedures (Gregolin et al., J Biol Chem, 1968, 243:4227-4235; Rendina et al., J Agric Food Chem, 1990, 38:1282-1287). Briefly, the reaction mixture (50 μL) contained 50 mM Hepes (pH 7.4), 20 mM K-citrate, 1.5 mM MgSO4, 4 mM malonyl-CoA, 1.67 mM acetyl-CoA, 0.34 mM [^14C]acetyl-CoA (about 60 mCi/mmol), 0.75 mg/mL BSA, and 1% (v/v) DMSO with or without inhibitor. Reactions are initiated by the addition of hACCl (0.3 μg) or hACC2 (0.15 μg) enzyme and incubated at 37° C. for 10 min. Reactions are stopped by addition of a 0.2M sodium arsenate solution containing 1U of phosphotransacetylase (13.5 μL) and incubation at room temperature for 30 min. […] The samples are then resuspended in water (200 μL), added to scintillation cocktail (3 mL), and counted in a scintillation counter to quantify radiolabel incorporated into malonyl-CoA. […]

## COc1cc(C(=O)N2CCC3(CC2)NC(=O)c2cc(Br)ccc2O3)nc2c(OC)cccc12 [Compound 2, 6-Bromo-1′-[(4,8-dimethoxyquinoline-2-yl)carbonyl]spiro[2H-1,3-benzoxazine-2,4′-piperidine]-4(3H)-one]
C2C12 cells; C2C12, 0.1 μM
  stimulation of fatty acid oxidation: 170%
C2C12 cells; C2C12, 1 μM
  stimulation of fatty acid oxidation: 320%
[1]
  IC50: 11 µM
hACC1-CT
  IC50: 0.1 µM
